# Legend:
# Test in all cases: NCI 60 single concentration growth inhibition
# Format in all cases: cell-based, human
# [1] = tested on: OVCAR-5; conditions: Homo sapiens, OVCAR-5, Ovarian cancer, read-out: GI%
# Method: (§1) The synthesized dichlorobenzimidazoles 10a–p were assayed for their influence on divers cancer cell lines according to the method presented in the Additional file A.
# (§2) 5. Screening of cytotoxic activity against a panel of sixty human tumor cell lines
# (§3) The selected compounds by NCI were evaluated for their anticancer activity in a two-stage process. First, these compounds were screened against the full NCI 60 cell lines panel at a single high dose of 10 µM. Then, the output from the single dose screen is reported as a mean graph. […]
# (§4) at five different minimal concentrations.
# (§5) Assay protocol. The human tumor cell lines of the cancer screening panel are grown in RPMI 1640 medium containing 5% fetal bovine serum and 2 mM L-glutamine. For a typical screening experiment, cells are inoculated into 96 well microtiter plates in 100 µL at plating densities ranging from 5000 to 40,000 cells/well depending on the doubling time of individual cell lines. After cell inoculation, the microtiter plates are incubated at 37 °C, 5% CO 2, 95% air and 100% relative humidity for 24 h prior to addition of the experimental drugs.
# (§6) After 24 h, two plates of each cell line are fixed in situ with TCA, to represent a measurement of the cell population for each cell line at the time of drug addition (Tz). The experimental drugs are solubilized in dimethyl sulfoxide at 400-fold the desired final maximum test concentration and stored frozen prior to use. At the time of drug addition, an aliquot of frozen concentrate is thawed and diluted to twice the desired final maximum test concentration with complete medium containing 50 µg/mL gentamicin. Additional four, 10-fold or ½ log serial dilutions are made to provide a total of five drug concentrations plus control.
# (§7) Aliquots of […] of these different drug dilutions are added to the appropriate microtiter wells already containing […] of medium, resulting in the required final drug concentrations.
# (§8) Following drug addition, the plates are incubated for an additional 48 h at 37 °C, 5% CO 2, 95% air, and 100% relative humidity. For adherent cells, the assay is terminated by the addition of cold TCA.
# (§9) Cells are fixed in situ by the gentle addition of 50 µL of cold 50% (w/v) TCA (final concentration, 10% TCA) and incubated for 60 min at 4 °C. The supernatant is discarded, and the plates are washed five times with tap water and air dried. Sulforhodamine B (SRB) solution ([…]) at 0.4% (w/v) in 1% acetic acid is added to each well, and plates are incubated for 10 min at room temperature. After staining, unbound dye is removed by washing five times with 1% acetic acid and the plates are air dried. Bound stain is subsequently solubilized with 10 mM trizma base, and the absorbance is read on an automated plate reader at a wavelength of 515 nm. For suspension cells, the methodology is […]
# (§10) the same except that the assay is terminated by fixing settled cells at the bottom of the wells by gently adding 50 µl of 80% TCA (final concentration, 16% TCA). Using the seven absorbance measurements [time zero, (Tz), control growth, (C), and test growth in the presence of drug at the five concentration levels (Ti)], the percentage growth is calculated at each of the drug concentrations […]
# (§11) Percentage growth inhibition is calculated as: [(Ti Tz)/(C–Tz)] x 100 for concentrations for which Ti>/=Tz and [(Ti-Tz)/Tz] x 100 for concentrations for which Ti < Tz.
# (§12) Three dose response parameters are calculated for each experimental agent. Growth […]
# (§13) concentration resulting in a 50% reduction in the net protein increase (as measured by SRB staining) in control cells during the drug incubation. The drug concentration resulting in total growth inhibition (TGI) is calculated from Ti = Tz. […]
# (§14) reduction in the measured protein at the end of the drug treatment as compared to that at the beginning) indicating a net loss of cells following treatment is calculated from [(Ti–Tz)/Tz] x 100 =
# (§15) _50. Values are calculated for each of these three parameters if the level of activity is reached; […]
# [2] = tested on: HL-60(TB); conditions: Homo sapiens, Leukemia, read-out: GI%
# Method: as §1, §2, §3, §4, §5, §6, §7, §8, §9, §10, §11, §12, §13, §14, §15
# [3] = tested on: HCT-116; conditions: Homo sapiens, HCT-116, Colon cancer, read-out: GI%
# Method: as §1, §2, §3, §4, §5, §6, §7, §8, §9, §10, §11, §12, §13, §14, §15
# [4] = tested on: MDA-MB-468; conditions: Homo sapiens, MDA-MB-468, Breast cancer, read-out: GI%
# Method: as §1, §2, §3, §4, §5, §6, §7, §8, §9, §10, §11, §12, §13, §14, §15
# [5] = tested on: MDA-MB-435; conditions: Homo sapiens, MDA-MB-435, Melanoma, read-out: GI%
# Method: as §1, §2, §3, §4, §5, §6, §7, §8, §9, §10, §11, §12, §13, §14, §15
# [6] = tested on: UACC-257; conditions: Homo sapiens, UACC-257, Melanoma, read-out: GI%
# Method: as §1, §2, §3, §4, §5, §6, §7, §8, §9, §10, §11, §12, §13, §14, §15
# [7] = tested on: UACC-62; conditions: Homo sapiens, UACC-62, Melanoma, read-out: GI%
# Method: as §1, §2, §3, §4, §5, §6, §7, §8, §9, §10, §11, §12, §13, §14, §15
# [8] = tested on: SF-268; conditions: Homo sapiens, SF-268, CNS cancer, read-out: GI%
# Method: as §1, §2, §3, §4, §5, §6, §7, §8, §9, §10, §11, §12, §13, §14, §15
# [9] = tested on: BT-549; conditions: Homo sapiens, BT-549, Breast cancer, read-out: GI%
# Method: as §1, §2, §3, §4, §5, §6, §7, §8, §9, §10, §11, §12, §13, §14, §15
# [10] = tested on: MOLT-4; conditions: Homo sapiens, MOLT-4, Leukemia, read-out: GI%
# Method: as §1, §2, §3, §4, §5, §6, §7, §8, §9, §10, §11, §12, §13, §14, §15
# [11] = tested on: CCRF-CEM; conditions: Homo sapiens, Leukemia, read-out: GI%
# Method: as §1, §2, §3, §4, §5, §6, §7, §8, §9, §10, §11, §12, §13, §14, §15
# [12] = tested on: SK-MEL-5; conditions: Homo sapiens, SK-MEL-5, Melanoma, read-out: GI%
# Method: as §1, §2, §3, §4, §5, §6, §7, §8, §9, §10, §11, §12, §13, §14, §15
# [13] = tested on: SK-MEL-2; conditions: Homo sapiens, SK-MEL-2, Melanoma, read-out: GI%
# Method: as §1, §2, §3, §4, §5, §6, §7, §8, §9, §10, §11, §12, §13, §14, §15
# [14] = tested on: KM12; conditions: Homo sapiens, KM12, Colon cancer, read-out: GI%
# Method: as §1, §2, §3, §4, §5, §6, §7, §8, §9, §10, §11, §12, §13, §14, §15
# [15] = tested on: HS 578T; conditions: Homo sapiens, Breast cancer, read-out: GI%
# Method: as §1, §2, §3, §4, §5, §6, §7, §8, §9, §10, §11, §12, §13, §14, §15
# [16] = tested on: NCI-H23; conditions: Homo sapiens, NCI-H23, Non-small cell lung cancer, read-out: GI%
# Method: as §1, §2, §3, §4, §5, §6, §7, §8, §9, §10, §11, §12, §13, §14, §15
# [17] = tested on: M14; conditions: Homo sapiens, M14, Melanoma, read-out: GI%
# Method: as §1, §2, §3, §4, §5, §6, §7, §8, §9, §10, §11, §12, §13, §14, §15
# [18] = tested on: RXF 393; conditions: Homo sapiens, RXF 393, Renal cancer, read-out: GI%
# Method: as §1, §2, §3, §4, §5, §6, §7, §8, §9, §10, §11, §12, §13, §14, §15
# [19] = tested on: RPMI-8226; conditions: Homo sapiens, RPMI-8226, Leukemia, read-out: GI%
# Method: as §1, §2, §3, §4, §5, §6, §7, §8, §9, §10, §11, §12, §13, §14, §15
# [20] = tested on: T-47D; conditions: Homo sapiens, T47D, Breast cancer, read-out: GI%
# Method: as §1, §2, §3, §4, §5, §6, §7, §8, §9, §10, §11, §12, §13, §14, §15
# [21] = tested on: MDA-MB-231/ATCC; conditions: Homo sapiens, Breast cancer, read-out: GI%
# Method: as §1, §2, §3, §4, §5, §6, §7, §8, §9, §10, §11, §12, §13, §14, §15
# [22] = tested on: CAKI-1; conditions: Homo sapiens, CAKI-1, Renal cancer, read-out: GI%
# Method: as §1, §2, §3, §4, §5, §6, §7, §8, §9, §10, §11, §12, §13, §14, §15
Compound,inhibition at 10 µM [1] [%],inhibition at 10 µM [2] [%],inhibition at 10 µM [3] [%],inhibition at 10 µM [4] [%],inhibition at 10 µM [5] [%],inhibition at 10 µM [6] [%],inhibition at 10 µM [7] [%],inhibition at 10 µM [8] [%],inhibition at 10 µM [9] [%],inhibition at 10 µM [10] [%],inhibition at 10 µM [11] [%],inhibition at 10 µM [12] [%],inhibition at 10 µM [13] [%],inhibition at 10 µM [14] [%],inhibition at 10 µM [15] [%],inhibition at 10 µM [16] [%],inhibition at 10 µM [17] [%],inhibition at 10 µM [18] [%],inhibition at 10 µM [19] [%],inhibition at 10 µM [20] [%],also measured
"COc1ccc(-c2nc3cc(Cl)c(Cl)cc3n2CC(=O)NN=Cc2cccc(OC)c2)cc1 [Compound 10c, 2-(5,6-Dichloro-2-(4-methoxyphenyl)-1H-benzo[d]imidazol-1-yl)-N'-(3-methoxybenzylidene)acetohydrazide]",< 5,28.8,37.9,76.1,33,20.9,37.2,48.3,52.9,70.3,41.8,44.5,19.4,17.6,28.9,10.2,34.1,23.1,47.3,45.8,inhibition at 10 µM [21]: 15.1%; inhibition at 10 µM [22]: 43.5%
"COc1ccc(C=NNC(=O)Cn2c(-c3ccc(OC)cc3)nc3cc(Cl)c(Cl)cc32)cc1 [Compound 10d, 2-(5,6-Dichloro-2-(4-methoxyphenyl)-1H-benzo[d]imidazol-1-yl)-N'-(4-methoxybenzylidene)acetohydrazide]",21.5,40.9,61.3,81.8,41.4,60.4,34.1,48.6,50.3,68.9,40.2,78.9,30.9,40.8,34.6,50.9,38.2,38.7,64.9,67.2,inhibition at 10 µM [21]: 27.4%; inhibition at 10 µM [22]: 52%
"COc1ccc(-c2nc3cc(Cl)c(Cl)cc3n2CC(=O)NN=Cc2cccc(OCC(=O)O)c2)cc1 [Compound 10e, 2-(3-((2-(2-(5,6-Dichloro-2-(4-methoxyphenyl)-1H-benzo[d]imidazol-1-yl)acetyl)hydrazono)methyl)phenoxy)acetic acid]",< 5,< 5,< 5,< 5,< 5,< 5,< 5,< 5,< 5,< 5,< 5,< 5,< 5,< 5,7.11,5.12,6.12,< 5,< 5,< 5,inhibition at 10 µM [21]: < 5%; inhibition at 10 µM [22]: < 5%

# From paper PMC11844072, “Novel 5,6-dichlorobenzimidazole derivatives as dual BRAFWT and BRAFV600E inhibitors: design, synthesis, anti-cancer activity and molecular dynamics simulations” (BMC Chemistry, 2025)
